Measurements: US6858647B2, “Retinoid compounds suited for antibacterial applications” (Galderma Research & Development S.N.C., priority 2000, dated 2005)
Converted amounts (≈) assume the structure as drawn. Like-named read-outs stand apart in the source and are kept apart here.

Experiments:
[1] = test system: Staphylococcus aureus CIP52.1; assay: Minimum inhibitory concentration (MIC), NCCLS dilution antimicrobial susceptibility test; assay type: cell-based; details: mean of at least three tests, read-out: MIC RESULTS MEAN
Source text: The bacterium Staphylococcus aureus CIP52.1 may be used in order to determine for each test compound the minimum inhibitory concentration for the bacterium, or MIC, expressed in μM.
The technique employed to determine the minimum inhibitory concentration or MIC was that described in the publication entitled “National committee for clinical laboratory standards” Vol. 13, No. 25, December 1993; Methods for dilution antimicrobial susceptibility tests for bacteria that grow aerobically-third edition, approved standard”. This minimum inhibitory concentration gives an indication as to the bacteriostatic effect of the test compounds, i.e., the capacity of these compounds to stop the proliferation of the bacterium.
Each compound of the invention was tested at least three times. The average of the test results was calculated, along with the standard deviation. The reference compound used was gentamycin.
The technique employed to determine the MIC values was the same as that described in Example 1.
(§1) Each compound of the invention and each comparative example taken from the Pierre Fabre patent application No. FR-2,736,548 was tested at least three times. The mean of the test results was calculated, along with the standard deviation. The reference compound used was gentamycin.

[2] = test system: bacterium Staphylococcus aureus; assay: Minimum bactericidal concentration (MBC); assay type: cell-based; details: Table IV, Example 2, mean of at least three tests, bactericidal activity (MBC)
Procedure: The technique employed to determine the minimum bactericidal concentration, or MBC, was that described in Bactéricidie, P. Courvalin et al., Editions Maloine, 1990, chapter 7, page 335.
This minimum bactericidal concentration provides an indication as to the bactericidal effect of the test compounds, i.e., the capacity of these compounds to kill the bacterium.
as §1

RAR receptor = assay: Biological activity of RAR receptor antagonist / agonist type; details: stated in words, no test described
[3] = Table III, Example 2, comparison with retinaldehydes
[4] = Staphylococcus aureus, CIP52, Table II, Example 1, bacteriostatic effect
[5] = Staphylococcus aureus, CIP52, Table III, Example 2, comparison with retinaldehydes
[6] = Table II, Example 1, bacteriostatic effect

| Compound | MIC [1, 3] | MIC [2] | MIC [1, 4] | MIC [1, 5] | MIC ([2]; Staphylococcus aureus) | biological activity at RAR receptor (antagonist or agonist type) (RAR receptor) | MIC [1, 6] |
| --- | --- | --- | --- | --- | --- | --- | --- |
| CC1=C(/C=C/C(C)=C/C=C/C(C)=C/C=O)C(C)(C)CCC1 [Comparative Example 1, all-trans-retinaldehyde, reference compound] | 11.64 µM (≈ 3.31 µg/mL) | 26.33 µM (≈ 7.49 µg/mL) |  |  |  |  |  |
| CC1=C(/C=C/C(C)=C\C=C\C(C)=C\C=O)C(C)(C)CCC1 [Comparative Example 2, 9-cis-retinaldehyde, reference compound] | 11.52 µM (≈ 3.28 µg/mL) | 16.63 µM (≈ 4.73 µg/mL) |  |  |  |  |  |
| CC1=C(/C=C/C(C)=C/C=C/C(C)=C\C=O)C(C)(C)CCC1 [Comparative Example 3, 13-cis-retinaldehyde, reference compound] | 7.64 µM (≈ 2.17 µg/mL) | 15.97 µM (≈ 4.54 µg/mL) |  |  |  |  |  |
| COc1c(O)cc(-c2ccc3cc(C(=O)O)ccc3c2)cc1C12CC3CC(CC(C3)C1)C2 [Compound 1, 6-[3-(1-Adamantyl)-4-methoxy-5-hydroxyphenyl]-2-naphthoic acid] |  |  | 1.04 µM (≈ 0.446 µg/mL) | 1.3 µM (≈ 0.557 µg/mL) | 12.5 µM (≈ 5.36 µg/mL) | RAR receptor agonist type |  |
| COCOc1cccc(C=CC#Cc2ccc(C(=O)O)cc2)c1-c1ccc(C)cc1 [Compound 2, 4-[4-(6-Methoxymethoxy-4′-methylbiphenyl-2-yl)but-3-en-1-ynyl]benzoic acid] |  |  | 1.04 µM (≈ 0.414 µg/mL) | 2.45 µM (≈ 0.976 µg/mL) | 16.6 µM (≈ 6.63 µg/mL) | RAR receptor antagonist type |  |
| CC(C)(C)C1=CC(=CC#Cc2ccc(C(=O)O)cc2)C=C(C(C)(C)C)C1=O [Compound 5, 4-[3-(3,5-Di-tert-butyl-4-oxocyclohexa-2,5-dienylidene)prop-1-ynyl]benzoic acid] |  |  | 1.25 µM (≈ 0.453 µg/mL) | 3.3 µM (≈ 1.2 µg/mL) | 13.2 µM (≈ 4.78 µg/mL) | RAR receptor agonist type |  |
| O=C(O)c1ccc(-c2ccc3cc(O)c(C45CC6CC(CC(C6)C4)C5)cc3c2)cc1 [Compound 16] |  |  |  |  |  | RAR receptor agonist type | 2.50 µM (≈ 0.996 µg/mL) |
| CCCc1ccc(-c2ccccc2C=CC#Cc2ccc(C(=O)O)cc2)cc1 [Compound 21, 4-[4-(4′-Propylbiphenyl-2-yl)but-3-en-1-ynyl]benzoic acid] |  |  | 2.5 µM (≈ 0.916 µg/mL) |  |  | RAR receptor antagonist type |  |
| COCCOCOc1cc2ccc(-c3ccc(C(=O)O)c(O)c3)cc2cc1C12CC3CC(CC(C3)C1)C2 [Compound 30, 4-[6-Methoxyethoxymethoxy-7-(1-adamantyl)-2-naphthyl] salicylic acid] |  |  | 3.33 µM (≈ 1.67 µg/mL) |  |  | RAR receptor antagonist type |  |
| COCOc1ccc(/C=C/C#Cc2ccc(C(=O)O)cc2)c(-c2ccc(C)cc2)c1 [Compound 31, (E)-4-[4-(5-Methoxymethoxy-4′ -methylbiphenyl-2-yl)but-3-en-1-ynyl]benzoic acid] |  |  | 3.33 µM (≈ 1.33 µg/mL) |  |  | RAR receptor antagonist type |  |
| COc1cccc(-c2ccc(C)cc2)c1C=CC#Cc1ccc(C(=O)O)cc1 [Compound 32, 4-[4-(3-Methoxy-4′-methylbiphenyl-2-yl)but-3-en-1-ynyl]benzoic acid] |  |  | 3.33 µM (≈ 1.23 µg/mL) |  |  | RAR receptor antagonist type |  |
| COCOc1ccccc1-c1ccc(-c2ccc(C(=O)O)cc2)cc1-c1ccc2c(c1)C(C)(C)CCC2(C)C [Compound 34, 2-Methoxymethoxy-2′-(5,5,8,8-tetramethyl-5,6,7,8-tetrahydronaphthalen-2-yl) [1,1′,4′1″]terphenyl-4″carboxylic acid] |  |  |  |  |  | RAR receptor antagonist type | 3.33 µM (≈ 1.73 µg/mL) |
| Cc1ccc(-c2ccccc2C=CC#Cc2ccc(C(=O)O)cc2)cc1 [Compound 37, 4-[4-(4′-Methylbiphenyl-2-yl)but-3-en-1-ynyl]benzoic acid] |  |  | 4.16 µM (≈ 1.41 µg/mL) |  |  | RAR receptor antagonist type |  |
| gentamycin [reference compound] | 0.14 µM | 0.26 µM |  |  |  |  | 0.11 µM |
